Reference: ChEMBL document CHEMBL1137944, “Imidazole derivatives as new potent and selective 20-HETE synthase inhibitors” (Bioorg Med Chem Lett, 2004)

How the values were obtained:
[1] = biological target: Cytochrome P450 2D6 (Homo sapiens, UniProt P10635); assay: Inhibition of cytochrome P450 2D6
[2] = Distribution coefficient of compound was evaluated at pH 6.8; conditions: octanol/water
[3] = biological target: Cytochrome P450 3A4 (Homo sapiens, UniProt P08684); assay: Inhibition of cytochrome P450 3A4
[4] = biological target: T1, Cytochrome P450 1A2 (Homo sapiens, UniProt P05177); assay: Inhibition of cytochrome P450 1A2
T1 sequence (P05177 whole entry): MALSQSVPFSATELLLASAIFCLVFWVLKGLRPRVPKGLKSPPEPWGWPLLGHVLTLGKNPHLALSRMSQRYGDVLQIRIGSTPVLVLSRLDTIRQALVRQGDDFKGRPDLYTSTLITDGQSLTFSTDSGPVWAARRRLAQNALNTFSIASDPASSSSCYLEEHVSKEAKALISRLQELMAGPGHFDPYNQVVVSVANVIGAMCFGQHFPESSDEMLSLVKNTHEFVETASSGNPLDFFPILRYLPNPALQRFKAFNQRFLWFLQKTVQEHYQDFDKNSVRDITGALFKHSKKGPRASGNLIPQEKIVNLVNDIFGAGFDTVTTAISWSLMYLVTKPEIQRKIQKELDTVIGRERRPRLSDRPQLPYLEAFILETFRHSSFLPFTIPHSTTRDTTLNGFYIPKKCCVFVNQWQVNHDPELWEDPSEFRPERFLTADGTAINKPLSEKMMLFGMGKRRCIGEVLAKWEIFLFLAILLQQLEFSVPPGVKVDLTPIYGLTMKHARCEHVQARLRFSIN

[5] = Inhibition of 20-HETE synthesis in human renal microsomes; parameters: species or system Microsome
[6] = biological target: Cytochrome P450 2C9 (Homo sapiens, UniProt P11712); assay: Inhibition of cytochrome P450 2C9
[7] = biological target: Cytochrome P450 2C19 (Homo sapiens, UniProt P33261); assay: Inhibition of cytochrome P450 2C19
Cytochrome P450 2C19, sequence (P33261 whole entry): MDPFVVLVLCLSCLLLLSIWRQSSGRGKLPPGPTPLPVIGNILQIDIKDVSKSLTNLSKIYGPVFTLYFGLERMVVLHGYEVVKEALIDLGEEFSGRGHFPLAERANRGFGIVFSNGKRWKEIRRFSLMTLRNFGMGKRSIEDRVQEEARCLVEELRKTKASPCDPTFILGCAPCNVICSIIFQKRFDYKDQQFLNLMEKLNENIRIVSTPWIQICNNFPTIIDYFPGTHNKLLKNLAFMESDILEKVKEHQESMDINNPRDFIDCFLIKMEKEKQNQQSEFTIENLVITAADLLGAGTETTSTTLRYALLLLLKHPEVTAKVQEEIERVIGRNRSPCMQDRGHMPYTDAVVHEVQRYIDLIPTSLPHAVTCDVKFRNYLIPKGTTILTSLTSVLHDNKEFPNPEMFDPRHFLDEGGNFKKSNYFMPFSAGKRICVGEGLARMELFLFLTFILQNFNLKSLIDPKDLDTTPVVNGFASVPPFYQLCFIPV

Cytochrome P450 2D6, sequence (P10635 whole entry): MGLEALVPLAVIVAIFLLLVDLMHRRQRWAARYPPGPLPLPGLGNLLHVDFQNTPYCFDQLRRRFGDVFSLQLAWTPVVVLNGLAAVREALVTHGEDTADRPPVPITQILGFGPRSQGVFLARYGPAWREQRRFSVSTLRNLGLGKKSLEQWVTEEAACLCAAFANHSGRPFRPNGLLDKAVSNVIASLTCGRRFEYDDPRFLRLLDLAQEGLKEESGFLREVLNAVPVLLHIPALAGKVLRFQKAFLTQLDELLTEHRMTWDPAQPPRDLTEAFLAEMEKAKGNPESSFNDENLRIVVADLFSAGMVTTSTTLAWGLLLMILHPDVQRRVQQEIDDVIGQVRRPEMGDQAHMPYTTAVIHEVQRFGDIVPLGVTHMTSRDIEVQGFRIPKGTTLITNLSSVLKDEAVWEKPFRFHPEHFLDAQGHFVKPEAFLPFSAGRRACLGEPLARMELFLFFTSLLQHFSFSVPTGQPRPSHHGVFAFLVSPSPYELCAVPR
Cytochrome P450 2C9, sequence (P11712 whole entry): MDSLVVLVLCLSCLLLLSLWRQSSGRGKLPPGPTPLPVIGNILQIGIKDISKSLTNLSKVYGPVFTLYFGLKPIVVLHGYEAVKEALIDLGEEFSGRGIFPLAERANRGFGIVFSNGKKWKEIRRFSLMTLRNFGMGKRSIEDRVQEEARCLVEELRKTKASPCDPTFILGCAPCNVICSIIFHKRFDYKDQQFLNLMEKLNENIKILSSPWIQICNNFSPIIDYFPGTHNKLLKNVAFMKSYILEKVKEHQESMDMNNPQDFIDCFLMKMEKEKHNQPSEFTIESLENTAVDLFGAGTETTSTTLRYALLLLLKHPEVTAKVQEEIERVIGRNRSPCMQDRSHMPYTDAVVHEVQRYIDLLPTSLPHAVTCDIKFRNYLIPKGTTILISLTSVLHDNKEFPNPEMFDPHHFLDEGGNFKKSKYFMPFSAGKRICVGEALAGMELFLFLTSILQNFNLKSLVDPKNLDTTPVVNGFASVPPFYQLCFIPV
Cytochrome P450 3A4, sequence (P08684 whole entry): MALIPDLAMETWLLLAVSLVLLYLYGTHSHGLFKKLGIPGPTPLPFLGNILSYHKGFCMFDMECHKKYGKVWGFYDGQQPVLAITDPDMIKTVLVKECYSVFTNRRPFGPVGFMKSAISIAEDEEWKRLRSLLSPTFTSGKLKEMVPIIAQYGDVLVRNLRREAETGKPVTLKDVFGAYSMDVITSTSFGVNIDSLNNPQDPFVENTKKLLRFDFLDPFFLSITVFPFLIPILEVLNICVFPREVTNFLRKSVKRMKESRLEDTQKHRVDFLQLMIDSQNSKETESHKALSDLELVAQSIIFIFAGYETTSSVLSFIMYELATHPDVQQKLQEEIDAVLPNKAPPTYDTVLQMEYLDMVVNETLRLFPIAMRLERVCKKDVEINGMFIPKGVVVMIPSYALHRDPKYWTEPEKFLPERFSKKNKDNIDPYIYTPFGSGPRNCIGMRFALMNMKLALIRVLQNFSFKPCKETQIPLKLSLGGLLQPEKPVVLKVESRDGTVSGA

SMILES	IC50 [1] [µM]	logD [2]	IC50 [3] [µM]	IC50 [4] [µM]	IC50 [5] [µM]	IC50 [6] [µM]	IC50 [7] [µM]
CN(C)CCCCCCOc1ccc(-n2ccnc2)cc1	0.41	0.51	4.46	0.8	0.0022		
CCCCc1ccc(/N=C/NO)c(C)c1					0.0089		
c1cc(CCCOc2ccc(-n3ccnc3)cc2)ccn1	1.04	2.81	0.344	< 0.046	0.0011	0.101	< 0.046
CCOC(=O)N1CCN(CCOc2ccc(-n3ccnc3)cc2)CC1	3.2	2.27	> 100	2.24	0.016	1.44	0.469
c1cn(-c2ccc(OCCN3CCOCC3)cc2)cn1	0.399	0.91	5.67	1.48	0.0086	1.81	0.091
CN(C)CCCOc1ccc(-n2ccnc2)cc1	0.4	-0.41	39	3.4	0.051		
CN(C)CCOc1ccc(-n2ccnc2)cc1	1.05	-0.08	> 100	15	0.387		
c1ccc(COc2ccc(-n3ccnc3)cc2)nc1	1.04	1.99	0.63	0.12	0.0045	0.13	< 0.046
c1ccc(CCCOc2ccc(-n3ccnc3)cc2)nc1	0.62	2.84	0.252	< 0.046	0.0021	0.129	< 0.046
c1cncc(CCCOc2ccc(-n3ccnc3)cc2)c1	1.3	2.85	0.417	< 0.046	0.0011	0.185	< 0.046
CCCCCCOc1ccc(-n2ccnc2)cn1					0.0077		
